Laboratory results taken from US20210024499A1, “OXIDIZED BIS(3-INDOLYL)METHANES AND USES THEREOF” (Sanford Burnam Prebys Medical Discovery Institute, priority 2018, published 2021).

How the values were obtained:
HeLa cells [1] = test: PARP cleavage assay (Western blotting), HeLa; assay type: cell-based; details: 6 hours
From the text: (§1) Compound 1a had no effect under the same conditions (FIG. 1A). […] Compound 1a, 28a, 47a, 48a, 73a, 39a, 70a, 103a, 89a and 88a had no effect under the same conditions (FIG. 3B-C).

Nur77−/− HeLa cells = test: Mitochondrial membrane potential (JC1), Nur77 knockout HeLa; assay type: cell-based; details: 1 μM, 6 h
Description: (§2) Loss of mitochondrial membrane potential (Avm) represents one of the hallmarks of apoptosis. A JC-1 probe was employed to measure mitochondrial depolarization in cancer cells. MDA-MB-231 breast cancer cells were treated with different concentration of test compounds for 6 hours. JC-1 staining solution (5 μg/ml) was added at 37° C. for 20 min. After washing with PBS twice, mitochondrial membrane potentials were monitored by determining the relative amounts of dual emission from a multiple fluorescence reader. The fluorescence in cells was quantitatively analyzed by flow cytometry. Mitochondrial depolarization is depicted by an increase in the green/red fluorescence intensity ratio. ROS were monitored with the oxiadtion-senstive fluorescent probe 2′7′-dichlorodihydroflurescenin diacetate (DCF-DA).
(§3) Furthermore, Nur77^−/−HeLa cells were more resistant than the parental HeLa cells to Compound 1 in its induction of the mitochondrial membrane potential loss measured by JC1 staining and in the release of mitochondrial ROS (as performed in Example A-12).

SW480 cells = test: PARP cleavage assay (Western blotting), SW480; assay type: cell-based; details: 6 hours
From the text: as §1

[2] = tested on: mTOR markers p-S6 and p-4EBP1; test: mTOR inhibition: expression of mTOR markers; assay type: cell-based; details: MDA-MB-231 cells, 6 hours
GFP-Nur77 = GFP-Nur77 (Homo sapiens, UniProt P22736); test: GFP-Nur77 localization in transfected HEK293T cells; assay type: cell-based; details: HEK293T cells transfected with GFP-Nur77, 0.5 μM
Description: Cells were fixed in 3.7% paraformaldehyde. For mitochondrial staining, cells were incubated with anti-Hsp60 goat immunoglobulin G (IgG) (Santa Cruz Biotechnology, Santa Cruz, Calif.), followed by anti-goat IgG conjugated with Cy3. The nuclei were visualized by DAPI staining. Fluorescent images were collected and analyzed by using a fluorescence microscopy or MRC-1024 MP laser-scanning confocal microscope (Bio-Rad, Hercules, Calif.).
To confirm the effect of Compound 1 on Nur77 cytoplasmic localization, HEK293T cells were transfected with GFP-Nur77 and subsequently treated with 0.5 μM Compound 1.

Nur77 = target: T1, Nur77 (Homo sapiens, UniProt P22736); test: Cellular fractionation and immunostaining: mitochondrial targeting of Nur77; assay type: cell-based
T1 construct: expressed in transfected cells
Description: For cellular fractionation, cells were lysed in cold buffer A (10 mM HEPES-KOH (pH 7.9), 1.5 mM MgCl2, 10 mM KCl, 0.5 mM dithiothreitol) with a cocktail of proteinase inhibitors on ice for 10 min as described. Cytoplasmic fraction was collected by centrifuging at 6000 rpm for 30 seconds. Pellets containing nuclei were resuspended in cold high-salt buffer C (20 mM HEPES-KOH (pH 7.9), 25% glycerol, 420 mM NaCl, 1.5 mM MgCl2, 0.2 mM EDTA, 0.5 mM dithiothreitol) with a cocktail of proteinase inhibitors on ice for 30 minutes.

[3] = tested on: Nur77 interaction with Bcl-2; test: Confocal microscopy colocalization of Nur77 with Bcl-2; assay type: cell-based
[4] = tested on: breast cancer cell lines (MDA-MB-231, BT549, HCC 1937, ZR-75-1, T47D, MCF-7); test: Cell viability (MTT) in various breast cancer cell lines; assay type: cell-based; details: 24 hours, FIG. 1E; regardless of hormone dependency
Description: (§4) Cell viability was analyzed by using a colorimetric 3-(4,5-dimethylthiazol-[…]2-yl)-2,5-diphenyletetrazolium Bromide (MTT) assay that determines mitochondrial dehydrogenase activities in the living cells with a colorimetric method. Cells treated with test compounds were incubated with MTT and their effect on the viability of the cells was assayed by the ability of treated cells to reduce the yellow tetrazolium dye MTT to its insoluble formazan, which has a purple color.
Compound 1 was effective in various breast cancer cell lines analyzed regardless of its hormone dependency, including MDA-MB-231 cells, BT549 cells, HCC 1937 cells, ZR-75-1 cells, T47D cells, and MCF-7 cells (FIG. 1E).

HeLa cells [5] = test: Mitochondrial membrane potential (JC1), HeLa; assay type: cell-based; details: 6 h
Description: as §2, §3
In addition, Bcl-2^−/−HeLa cells were more resistant than the parental HeLa cells to Compound 1 in its induction of the mitochondrial membrane potential loss measured by JC1 staining and in the release of mitochondrial ROS (as performed in Example A-12).

Nur77−/−HeLa cells = test: Annexin V/PI staining, Nur77 knockout HeLa; assay type: cell-based
Description: Knocking out Nur77 and Bcl-2 from HeLa cells employed the CRISPR/Cas9 system. gRNA targeting sequence of Nur77 (5′-[…]-3′) and Bcl-2 (5′-[…]-3′) was cloned into gRNA cloning vector Px330 (Addgene, 71707) and confirmed by sequencing. To screen for cells lacking Nur77 or Bcl-2, HeLa cells were transfected with control vector and gRNA expression vectors, followed by G418 selection (0.5mg/m1). Single colonies were subjected to Western blotting using anti-Nur77 and anti-Bcl-2 antibody to select knockout cells.
The apoptotic effect of Compound lwas also evaluated in Nur77 genome knockout HeLa cells generated by CRISPR/Cas9 technology (Example A-5).

MDA-MB-231 cancer cells = test: Cell viability (MTT) assay, MDA-MB-231; assay type: cell-based; details: Homo sapiens; inhibiting the growth of MDA-MB-231 cancer cells, cell viability assay (Table 6)
Description: as §4, with “color. […]” for “color.”

SW620 xenograft tumor = test: SW620 xenograft nude mouse study; assay type: in vivo, BALB/c nude mice
Description: Male BALB/c nude mice (6 weeks old) were subcutaneously injected with log growth-phase of SW620 cells (1×10^6 cells in 0.1 ml PBS). Mice were treated orally after 7 days of transplantation with Compound 1 once a day. Body weight and tumor size were measured every 3 days. Tumors were measured and weighted. Tissues isolated from the nude mice were fixed with 4% paraformaldehyde. TdT-mediated dUTP nick end labeling assay was performed according to the manufacturer's instructions (In situ Cell Death Detection Kit; Roche).

MDA-MB-231 cells = test: PARP cleavage assay (Western blotting), MDA-MB-231; assay type: cell-based; details: 0.5 μM, 6 hours
From the text: as §1

T1 sequence (P22736 whole entry): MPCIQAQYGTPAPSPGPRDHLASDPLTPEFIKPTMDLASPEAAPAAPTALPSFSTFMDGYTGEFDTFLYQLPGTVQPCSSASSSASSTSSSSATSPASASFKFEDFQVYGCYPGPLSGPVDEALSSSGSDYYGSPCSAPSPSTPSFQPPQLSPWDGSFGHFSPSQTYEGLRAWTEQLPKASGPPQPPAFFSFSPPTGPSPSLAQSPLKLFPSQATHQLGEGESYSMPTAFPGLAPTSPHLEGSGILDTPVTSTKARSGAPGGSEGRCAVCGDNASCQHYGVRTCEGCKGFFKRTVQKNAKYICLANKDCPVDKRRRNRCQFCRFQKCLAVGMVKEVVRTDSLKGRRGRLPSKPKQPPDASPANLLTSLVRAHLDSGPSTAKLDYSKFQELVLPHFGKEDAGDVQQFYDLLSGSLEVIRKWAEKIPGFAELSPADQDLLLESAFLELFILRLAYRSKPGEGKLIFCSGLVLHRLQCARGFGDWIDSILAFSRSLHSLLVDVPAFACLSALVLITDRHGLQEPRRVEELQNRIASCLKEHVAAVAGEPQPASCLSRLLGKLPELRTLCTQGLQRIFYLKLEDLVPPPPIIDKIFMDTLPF
Sequence of GFP-Nur77 (P22736 whole entry): as above

**Q.** Which “concentration inducing PARP cleavage (dose dependent study)” value (HeLa cells [1]) does the source give for `FC(F)(F)c1ccc([C+](c2c[nH]c3ccccc23)c2c[nH]c3ccccc23)cc1` [Compound 1, Bis(1H-indol-3-yl)(4-(trifluoromethyl)phenyl)methylium methanesulfonate] here?
**A.** submicromolar concentrations

**Q.** And the “JC1 green to red ratio” value (Nur77−/− HeLa cells)?
**A.** no significant change

**Q.** And the “concentration inducing PARP cleavage (dose dependent study)” value (SW480 cells)?
**A.** submicromolar concentrations

**Q.** And the “expression levels of mTOR marker p-4EBP1” value ([2]; 0.75 μM)?
**A.** reduced the expression levels

**Q.** And the “expression levels of mTOR markers p-S6 and p-4EBP1” value ([2]; 1 μM)?
**A.** reduced the expression levels

**Q.** And the GFP-Nur77 subcellular localization (GFP-Nur77)?
**A.** diffusely distributed in both the cytoplasm and nucleus

**Q.** And the “transfected GFP-Nur77 in heavy membrane (HM) fraction” value (Nur77; cellular fractionation)?
**A.** accumulated in the mitochondria-enriched heavy membrane (HM) fraction

**Q.** What about the “Myc-Nur77 in heavy membrane (HM) fraction” value (Nur77; mitochondria fractionation, 1μM) of the same compound?
**A.** accumulated in the mitochondria-enriched heavy membrane (HM) fraction

**Q.** What about the “colocalization of transfected GFP-Nur77 (and GFP-Nur77-LBD) with Bcl-2” value [3] of the same compound?
**A.** promoted extensive colocalization

**Q.** And the “cell viability (MTT)” value [4]?
**A.** effective

**Q.** And the “JC1 green to red ratio (control 100%)” value (HeLa cells [5]; 0.5 μM)?
**A.** 195%

**Q.** And the “JC1 green to red ratio (control 100%)” value (HeLa cells [5]; 1 μM)?
**A.** 190%

**Q.** And the “apoptotic effect (Annexin V/PI staining)” value (Nur77−/−HeLa cells)?
**A.** 3.25%

**Q.** What about the IC50 (MDA-MB-231 cancer cells) of the same compound?
**A.** < 500 nM

**Q.** And the “apoptosis in tumor specimens (TUNEL assay)” value (SW620 xenograft tumor; SW620 xenograft, compared to control tumor)?
**A.** extensive apoptosis

**Q.** And the “growth of SW620 xenograft tumor” value (SW620 xenograft tumor; nude mice, oral, once a day (FIGS. 6A-6B))?
**A.** inhibited the growth of SW620 xenograft tumor in a dose and time-dependent manner

**Q.** What about the PARP cleavage (MDA-MB-231 cells) of the same compound?
**A.** effectively induced PARP cleavage
